Experiments:
Experiment in all cases: relative viability (nuclei count vs DMSO), 5 days (fraction); higher = more cells survive
BEN = test system: BEN
In short: (§1)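 For relative viability, nuclei counts in treated wells were divided by those in vehicle wells. Lung cancer cell lines had been pin-tool dosed in 1536-well plates the day after seeding and cultured for 5 days, then fixed and stained in one step (final 0.05% Triton X-100, 1% formaldehyde, 1 ug/ml Hoechst) and imaged at 4×. Doses were one drug alone or a fixed anchor-drug dose plus five library-drug doses (not always all listed) in √10 steps, and values are duplicate-plate medians.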

ChaGo-K-1 = test system: ChaGo-K-1
In short: as §1

HCC-78 = test system: HCC-78
In short: as §1

LC-2-ad = test system: LC-2-ad
In short: as §1

LCLC-97TM1 = test system: LCLC-97TM1
In short: as §1

LK-2 = test system: LK-2
In short: as §1

LU99A = test system: LU99A
In short: as §1

LXF-289 = test system: LXF-289
In short: as §1

NCI-H1355 = test system: NCI-H1355
In short: as §1

NCI-H1651 = test system: NCI-H1651
In short: as §1

NCI-H1666 = test system: NCI-H1666
In short: as §1

NCI-H1944 = test system: NCI-H1944
In short: as §1

NCI-H1975 = test system: NCI-H1975
In short: as §1

NCI-H2087 = test system: NCI-H2087
In short: as §1

NCI-H2342 = test system: NCI-H2342
In short: as §1

NCI-H358 = test system: NCI-H358
In short: as §1

NCI-H596 = test system: NCI-H596
In short: as §1

NCI-H650 = test system: NCI-H650
In short: as §1

NCI-H661 = test system: NCI-H661
In short: as §1

NCI-H838 = test system: NCI-H838
In short: as §1

PC-3 [JPC-3] = test system: PC-3 [JPC-3]
In short: as §1

SK-MES-1 = test system: SK-MES-1
In short: as §1

COc1cc2nccc(Oc3ccc(NC(=O)Nc4cc(C)on4)c(Cl)c3)c2cc1OC [Tivozanib] + CC(=O)Nc1cccc(-n2c(=O)n(C3CC3)c(=O)c3c(Nc4ccc(I)cc4F)n(C)c(=O)c(C)c32)c1 [Trametinib] (partner 0.02 µM)
relative viability (BEN; first compound 0.005 µM): 1.13
relative viability (BEN; first compound 0.01581 µM): 1.1
relative viability (BEN; first compound 0.05 µM): 0.961
relative viability (BEN; first compound 0.1581 µM): 0.903
relative viability (BEN; first compound 0.5 µM): 1
relative viability (ChaGo-K-1; first compound 0.005 µM): 0.853
relative viability (ChaGo-K-1; first compound 0.01581 µM): 0.89
relative viability (ChaGo-K-1; first compound 0.05 µM): 0.875
relative viability (ChaGo-K-1; first compound 0.1581 µM): 0.859
relative viability (ChaGo-K-1; first compound 0.5 µM): 0.868
relative viability (HCC-78; first compound 0.005 µM): 0.788
relative viability (HCC-78; first compound 0.01581 µM): 0.828
relative viability (HCC-78; first compound 0.05 µM): 0.711
relative viability (HCC-78; first compound 0.1581 µM): 0.859
relative viability (HCC-78; first compound 0.5 µM): 0.537
relative viability (LC-2-ad; first compound 0.005 µM): 0.91
relative viability (LC-2-ad; first compound 0.01581 µM): 0.849
relative viability (LC-2-ad; first compound 0.05 µM): 0.888
relative viability (LC-2-ad; first compound 0.1581 µM): 0.601
relative viability (LC-2-ad; first compound 0.5 µM): 0.497
relative viability (LCLC-97TM1; first compound 0.005 µM): 0.15
relative viability (LCLC-97TM1; first compound 0.01581 µM): 0.194
relative viability (LCLC-97TM1; first compound 0.05 µM): 0.206
relative viability (LCLC-97TM1; first compound 0.1581 µM): 0.165
relative viability (LCLC-97TM1; first compound 0.5 µM): 0.273
relative viability (LK-2; first compound 0.005 µM): 0.933
relative viability (LK-2; first compound 0.01581 µM): 0.534
relative viability (LK-2; first compound 0.05 µM): 0.622
relative viability (LK-2; first compound 0.1581 µM): 0.85
relative viability (LK-2; first compound 0.5 µM): 0.773
relative viability (LU99A; first compound 0.005 µM): 0.626
relative viability (LU99A; first compound 0.01581 µM): 0.496
relative viability (LU99A; first compound 0.05 µM): 0.61
relative viability (LU99A; first compound 0.1581 µM): 0.396
relative viability (LU99A; first compound 0.5 µM): 0.563
relative viability (LXF-289; first compound 0.005 µM): 0.698
relative viability (LXF-289; first compound 0.01581 µM): 0.674
relative viability (LXF-289; first compound 0.05 µM): 0.629
relative viability (LXF-289; first compound 0.1581 µM): 0.646
relative viability (LXF-289; first compound 0.5 µM): 0.668
relative viability (NCI-H1355; first compound 0.005 µM): 0.413
relative viability (NCI-H1355; first compound 0.01581 µM): 0.432
relative viability (NCI-H1355; first compound 0.05 µM): 0.455
relative viability (NCI-H1355; first compound 0.1581 µM): 0.33
relative viability (NCI-H1355; first compound 0.5 µM): 0.408
relative viability (NCI-H1651; first compound 0.005 µM): 0.816
relative viability (NCI-H1651; first compound 0.01581 µM): 0.808
relative viability (NCI-H1651; first compound 0.05 µM): 0.821
relative viability (NCI-H1651; first compound 0.1581 µM): 0.866
relative viability (NCI-H1651; first compound 0.5 µM): 0.828
relative viability (NCI-H1666; first compound 0.005 µM): 0.839
relative viability (NCI-H1666; first compound 0.01581 µM): 0.78
relative viability (NCI-H1666; first compound 0.05 µM): 0.977
relative viability (NCI-H1666; first compound 0.1581 µM): 0.922
relative viability (NCI-H1666; first compound 0.5 µM): 0.862
relative viability (NCI-H1944; first compound 0.005 µM): 0.344
relative viability (NCI-H1944; first compound 0.01581 µM): 0.453
relative viability (NCI-H1944; first compound 0.05 µM): 0.399
relative viability (NCI-H1944; first compound 0.1581 µM): 0.423
relative viability (NCI-H1944; first compound 0.5 µM): 0.455
relative viability (NCI-H1975; first compound 0.005 µM): 0.296
relative viability (NCI-H1975; first compound 0.01581 µM): 0.39
relative viability (NCI-H1975; first compound 0.05 µM): 0.442
relative viability (NCI-H1975; first compound 0.1581 µM): 0.256
relative viability (NCI-H1975; first compound 0.5 µM): 0.312
relative viability (NCI-H2087; first compound 0.005 µM): 0.147
relative viability (NCI-H2087; first compound 0.01581 µM): 0.211
relative viability (NCI-H2087; first compound 0.05 µM): 0.193
relative viability (NCI-H2087; first compound 0.1581 µM): 0.166
relative viability (NCI-H2087; first compound 0.5 µM): 0.243
relative viability (NCI-H2342; first compound 0.005 µM): 0.823
relative viability (NCI-H2342; first compound 0.01581 µM): 0.834
relative viability (NCI-H2342; first compound 0.05 µM): 1.92
relative viability (NCI-H2342; first compound 0.5 µM): 0.733
relative viability (NCI-H358; first compound 0.005 µM): 0.124
relative viability (NCI-H358; first compound 0.01581 µM): 0.153
relative viability (NCI-H358; first compound 0.05 µM): 0.161
relative viability (NCI-H358; first compound 0.1581 µM): 0.108
relative viability (NCI-H358; first compound 0.5 µM): 0.144
relative viability (NCI-H596; first compound 0.005 µM): 0.653
relative viability (NCI-H596; first compound 0.01581 µM): 0.834
relative viability (NCI-H596; first compound 0.05 µM): 0.725
relative viability (NCI-H596; first compound 0.5 µM): 0.931
relative viability (NCI-H650; first compound 0.005 µM): 0.942
relative viability (NCI-H650; first compound 0.01581 µM): 1.05
relative viability (NCI-H650; first compound 0.05 µM): 1.05
relative viability (NCI-H650; first compound 0.1581 µM): 0.97
relative viability (NCI-H650; first compound 0.5 µM): 0.909
relative viability (NCI-H661; first compound 0.005 µM): 0.588
relative viability (NCI-H661; first compound 0.01581 µM): 0.562
relative viability (NCI-H661; first compound 0.05 µM): 0.618
relative viability (NCI-H661; first compound 0.1581 µM): 0.522
relative viability (NCI-H661; first compound 0.5 µM): 0.641
relative viability (NCI-H838; first compound 0.005 µM): 0.514
relative viability (NCI-H838; first compound 0.01581 µM): 0.555
relative viability (NCI-H838; first compound 0.05 µM): 0.552
relative viability (NCI-H838; first compound 0.1581 µM): 0.34
relative viability (NCI-H838; first compound 0.5 µM): 0.504
relative viability (PC-3 [JPC-3]; first compound 0.01581 µM): 0.686
relative viability (PC-3 [JPC-3]; first compound 0.05 µM): 0.807
relative viability (PC-3 [JPC-3]; first compound 0.1581 µM): 0.674
relative viability (PC-3 [JPC-3]; first compound 0.5 µM): 0.811
relative viability (SK-MES-1; first compound 0.005 µM): 0.542
relative viability (SK-MES-1; first compound 0.01581 µM): 0.602
relative viability (SK-MES-1; first compound 0.05 µM): 0.558
relative viability (SK-MES-1; first compound 0.1581 µM): 0.542
relative viability (SK-MES-1; first compound 0.5 µM): 0.7
